Laboratory results: US6900242B2, “Lactone formulations and method of use” (Magnachem International Laboratories, Inc., priority 2001, dated 2005)
≈ marks a conversion by molar mass, not a printed value.

Legend:
E. coli ATCC 352 18 = test: Anti-bacterial activity, sensitivity disc zone of inhibition; assay type: cell-based, Escherichia coli; details: for zone of inhibition: E. coli
Protocol: (§1) The material obtained in Example 1 was screened for antibiotic activity against Staphylococcus aureus, Pseudomonas aeroginosa, Escherichia coli, and Klebsiella pneumoniae. • Solvent: Buffer Phosphate 0.1 N, pH=8.0 • Antibiotic: LMSV-6 (Pure, Securolide) • Medium coat: 2 mL/100 mL • Inoculum: 4 mL/Petri Dish Preparation of Culture Medium: [table] Microorganisms used were standardized by American Type Culture Collection (ATCC), used in first generation: • E. coli ATCC 352 18, Lot 202602, Exp. 05/2000 (19-258) • *Kleb. Klebsiela pneumoniae, ATCC 13882, Lot 202 174, Exp 02/2000 (19-152) • *Ps. A Pseudomona aeroginosa ATCC 27853, Lot 202992, Exp 08/2000 (19-060) • *St. A Staphyloccus aureus ATCC 12598, Lot 202564, Exp 05/2000 (19-137) • **Str. P Streptoccus pyogenes, ATCC 2 1547, Lote 202691, Exp 06/2000 (19-190) • *=Atmospheric oxygen, Temp=35±2° C. • **=Atmopheric CO2, Temp=35±2° C.

[1] = system: Klebsiela pneumoniae, ATCC 13882; test: as above; assay type: cell-based, Klebsiella pneumoniae; details: for zone of inhibition: Kleb
Protocol: as §1

[2] = system: Pseudomona aeroginosa ATCC 27853; test: as above; assay type: cell-based, Pseudomonas aeroginosa; details: for zone of inhibition: Ps. A
Protocol: as §1

[3] = system: Staphyloccus aureus ATCC 12598; test: as above; assay type: cell-based, Staphylococcus aureus; details: for zone of inhibition: St. a
Protocol: as §1

[4] = system: Staphylococcus aureus, Pseudomonas aeroginosa, Escherichia coli, and Klebsiella pneumoniae; test: Anti-bacterial activity of LMSV-6 dilutions (text summary, whole panel); assay type: cell-based; details: dilutions 10, 20, 30 and 40 microliters/10 mL of LMSV-6 in Tween 60-2%
Protocol: The material obtained in Example 1 was screened for antibiotic activity against Staphylococcus aureus, Pseudomonas aeroginosa, Escherichia coli, and Klebsiella pneumoniae.
• Solvent: Buffer Phosphate 0.1 N, pH=8.0 • Antibiotic: LMSV-6 (Pure, Securolide) • Medium coat: 2 mL/100 mL • Inoculum: 4 mL/Petri Dish Preparation of Culture Medium: […]

Sarcina lutea = test: Minimum Inhibitory Concentration, poured in plate, sensitivity disc; assay type: cell-based
Protocol: • Methodology: Poured in plate, medium Mueler Hinton pH=8 • Buffer pH=8 for ceftriaxone pattern dilution • Tween 20 at 2% for LMSV-6 (Securolide) dilution • Microorganism: Sarcina lutea • Sample(s): LMSV-6 (16.0 microliters/100 mL and 10 microliter applied to sensitivity disc). Methodology: Poured in plate, medium Mueler Hinton p&8 • Buffer pH=8 for ceftriaxone pattern dilution • Tween 20 at 2% for LMSV-6 (Securolide) dilution • Used Microorganism: Sarcina lutea • Sample(S): LMSV-6 (10 microliters/mL and 20 microliter applied to sensitivity disc) • Control Pattern (P): Ceftriaxone (disc with 10 mcg) Results: […]

bacterial infection = test: In vivo treatment of bacterial infection, rats infected in surgery; details: doses calculated by comparison with ceftriaxone
[5] = system: HEP-2 cells (laringe carcinoma); test: Cytotoxic assay (MTT) in HEP-2 cells; assay type: cell-based; details: Homo sapiens, HEp-2, HEP-2 cells
Description: (§2) There are a large number of biological assays that require the measurement of surviving or proliferating mammalian cells. This can be achieved by different methods, e.g. counting cells that exclude or include a dye; measuring released ^51Cr labeled protein after cell lysis; and measuring incorporation of radiactive nucleotides radiactive [^3H]thymidine) or [^125I]iododeoxyuridine) during cells proliferation.
(§3) Viable cells can be measured by using any of several staining methods, but a more accurate method is the multiwell scanning spectrophotometers (ELISA readers) which can measure large number of samples with a high degree of precision.
(§4) A colorimetric assay to detect living cells, utilizing a colorless substrate that is modified to a colored product by any living cell, but not by dead cells or tissue culture medium, was used. […] The Formazan concentration in a gradient of Securolide concentrations was measured by multiwells scanning spectrophotometer (ELISA reader). Data analysis was then used to establish the Inhibitory concentration fifty (IC50) which is a quantitative parameter of antineoplastic activity. […]
(§5) Assessment of cell growth inhibition was determined according to the methods of Skehan et aL, J. Nat. […] Optical density was measured at 570 nm. […]

[6] = system: HELA cells (cervix carcinoma); test: Cytotoxic assay (MTT) in HELA cells; assay type: cell-based; details: Homo sapiens
Description: as §2, §3, §4, §5

H. pylori = test: Patient endoscopy before and after treatment, H. pylori; assay type: in vivo, human; details: patients
Description: There are several methods used clinically to determine whether Helicobacter pylori is present in a human subject. These are employed for initial diagnosis of infection prior to treatment, as well as for determining the success of treatment in eradicating the organism from the patient. Endoscopy of the patient provides samples of tissue which can be cultured in a microaerophilic environment to diagnose H. pylori infection. Alternatively, the sample can be examined histologically by employing one of a number of stains such as Giemsa or hematoxylin-eosin. An urea test which takes advantage of the production of urease by H. pylori, can also be applied. This test relies on the formation of ammonia from the urea hydrolysis, which results in an observable change in pH, that is an indication of the […] of H. pylori.

Candida albicans = Candida albicans MIC / minimal fungicidal concentration assays; assay type: cell-based; details: concomitant assays
Protocol: Candida albicans cells were prepared as indicated in the J. Antimicrobial Chemotherapy 38, 579-587, and were washed 3 times with a 0.1 M phosphate solution and used immediately to determine the minimal inhibitory concentration (MIC). The MICs were determined by modification of a microtitre plate according to the standard method of the laboratory clinical standards of the Comite National. RPMI-1640, and L-glutamine buffered at pH 7 with a 0.15 M solution of MOPS (3-[N-morpholino]propane sulfonic acid). Candida albicans cells (1.5×10^3 cells/ml) were added to the wells of a 96-well plate containing RPMI-1640 and dilutions of antifungal agents. The results were read 48 hours after incubation at 35° C. and the MIC or the minimal inhibitory concentration which inhibited the growth of the Candida albicans cells was determined. After reading the MIC at 48 hours, the plates were shaken and 10 μl of well aliquot was removed from the wells which was placed on rectangular disks containing dextrose sugar. The plates were incubated for 48 hours at 35° C. and the minimal fungicidal concentration and the concentration of the antifungal agent at which there were no number of colony forming units.

[7] = system: anaerobic gram negative organisms associated with gingivitis; test: Topical application to affected gingiva (gingivitis); assay type: in vivo; details: topically applied to the affected gingiva
Actinomyces viscosus = test: MIC, procedure of Walker et al; assay type: cell-based
Description: (§6) The minimum inhibitory concentration (MIC) needed to kill Bacteroides assaccharolyticus (Forsyth strain), determined according to the procedure of Walker et al (Antimicrobial and Chemotherapy, Vol. 16, p. 452-457, (1979), is between 6 to 60 micrograms per ml. The MIC value for B. gingivalis is 6 micrograms per ml. The MIC value for B. gracilis and Fusobacterium, other gram negative organisms is about 25 for each; and the MIC value for the gram positive organism Actinomyces viscosus is 60 for the aerobic strain and 60 for the anaerobic strain.

B. gingivalis = test: MIC, procedure of Walker et al; assay type: cell-based; details: Porphyromonas gingivalis
Description: as §6

B. gracilis = test: MIC, procedure of Walker et al; assay type: cell-based
Description: as §6

[8] = system: Bacteroides assaccharolyticus (Forsyth strain); test: MIC, procedure of Walker et al; assay type: cell-based; details: read-out: minimum inhibitory concentration (MIC)
Description: as §6

Fusobacterium = test: MIC, procedure of Walker et al; assay type: cell-based
Description: as §6

[9] = disc of sensitivity 5 micrograms
[10] = disc of sensitivity 50 micrograms

## O=C(O)c1cn(C2CC2)c2cc(N3CCNCC3)c(F)cc2c1=O [Ciprof, Ciprofloxacina, reference compound]
E. coli ATCC 352 18; [9]
  zone of inhibition: 28 mm
[1]; [9]
  zone of inhibition: 26 mm
[2]; [9]
  zone of inhibition: 12 mm
[3]; [9]
  zone of inhibition: 20 mm

## C=C1CCOC1=O [LMSV-6]
E. coli ATCC 352 18; LMSV-6 (puro)
  zone of inhibition: 30 (mm)
E. coli ATCC 352 18; Escherichia coli, 5 microliters
  inhibition of growth: inhibits growth
[1]; LMSV-6 (puro)
  zone of inhibition: 40 mm
[1]; Klebsiela pneumonae, 5 microliters
  inhibition of growth: inhibits growth
[2]; LMSV-6 (puro)
  zone of inhibition: 30 mm
[2]; Pseudomonas aeroginosa, 5 microliters
  inhibition of growth: inhibits growth
[3]; LMSV-6 (puro)
  zone of inhibition: 30 mm
[3]; Staphyloccus aureus, 5 microliters
  inhibition of growth: inhibits growth
[4]
  inhibition of bacterial growth: did not exhibit inhibition of bacterial growth
Sarcina lutea; 0.2 microliters of LMSV-6
  inhibition (zone): 3.3 mm
Sarcina lutea; applied volume to disc 1.6 microliters
  ZONE OF INHIBITION: 20.0 mm
Sarcina lutea; applied volume to disc 5 microliters
  ZONE OF INHIBITION: 42.0 mm
Sarcina lutea; approximate
  Minimum Inhibitory Concentration (MIC): ~0.2 µL
Bacterial infection
  treatment of bacterial infection: successfully treated
[5]; population of 10^5 Cells/mL
  IC50: 10.4 µg/mL (≈ 106 µM)
[5]; population of 10^6 Cells/mL
  IC50: 37.4 µg/mL (≈ 381 µM)
[6]; population of 10^5 Cells/mL
  IC50: 7.37 µg/mL (≈ 75.1 µM)
[6]; population of 10^6 Cells/mL
  IC50: 27.3 µg/mL (≈ 278 µM)
H. pylori
  H. pylori by endoscopy before and after treatment: decrease or absence of H. pylori
Candida albicans
  activity against Candida albicans: high activity
[7]
  effect against gingivitis organisms: selectively effective
Actinomyces viscosus; aerobic strain
  MIC value: 60 µg/mL (≈ 612 µM)
Actinomyces viscosus; anaerobic strain
  MIC value: 60 µg/mL (≈ 612 µM)
B. gingivalis
  MIC: 6 µg/mL (≈ 61.2 µM)
B. gracilis
  MIC value: about 25
[8]
  MIC: 6 to 60 µg/mL (≈ 61.2 to 612 µM)
Fusobacterium
  MIC value: about 25

## C[C@@H]1O[C@@H]1P(=O)(O)O [osf, Fosfomicina, reference compound]
E. coli ATCC 352 18; [10]
  zone of inhibition: 10 mm
[1]; [10]
  zone of inhibition: 22 mm
[2]; [10]
  zone of inhibition: 6 mm
[3]; [10]
  zone of inhibition: 18 mm
